Values quoted from earlier work in patent publication US8207231B2, “Hepatitis A virucide” (Ecolab USA Inc., priority 1999, dated 2012).

Test system: hepatitis A
Details: 1 percent and 2 percent concentration

## Cc1ccc(S(=O)(=O)[N-]Cl)cc1.[Na+] [chloramine T]
  meets the requirements for activity against hepatitis A: meets the requirements for activity against hepatitis A
